Article PMC10900488, “Synthesis and Evaluation of (Bis)benzyltetrahydroisoquinoline Alkaloids as Antiparasitic Agents” (JACS Au, 2024)

tested on: not listed separately; assay: Mammalian toxicity, MTT colorimetric; type: cell-based, murine; conditions: mouse
Description: Table 1 depicts the antileishmanial (L. infantum) activity evaluation performed against both the amastigote form (evaluated microscopically using an ex vivo intracellular model of mice macrophages) and the promastigote one (using an MTT colorimetric method).[32],[33] The cytotoxicity was evaluated against NCTC cells using an MTT colorimetric method and the selectivity index was determined using the ratio between the CC50 values (NCTC cells) and the IC50 values (amastigotes).[32] […] With respect to the substituents on the C ring, larger, hydrophobic groups conferred greater bioactivity (e.g., 9b–d), whereas small, hydrophilic groups such as a hydroxyl group afford modest to poor bioactivity. […]
Murine conjunctive fibroblasts NCTC clone 929 (ATCC) were maintained in 10% foetal calf serum supplemented RPMI-1640 medium (pH 7.2) at 37 °C in a humidified incubator with 5% CO2. […]
(§1) Biological activity assays […]
NCTC cells (6 × 10^4/well) were added to a 96-well plate. Treatments of the cells with selected compounds (serially diluted 1.5 to 200 μM) was performed in a humidified incubator for 96 h at 37 °C and with 5% CO2.
The MTT colorimetric method was used to determine the 50% cytotoxic concentration (CC50) and the selectivity index (CC50 against NCTC cells/IC50 against amastigotes).15 […]
[…] At 6 h and 24 h post-treatment, a 1 mL aliquot was taken for imaging. The cell cycle experiment was preformed twice independently.
Generation of mNG::RAD51 tagged cell line
The single-stranded DNA-binding protein RAD51, associated with DNA Repair, LmxM.28.0550 was tagged with endogenous fluorescent protein mNeonGreen (mNG) at the N-terminus. […]
Primers for constructs and sgRNA were designed using LeishGEdit (http://www.leishGEdit.net).
PCR was at 94 °C for 5 min, followed by 35 cycles at 94 °C (15 sec), 65 °C (15 sec), 72 °C (2 min) then finally 72 °C (1 min).
PCR was at 94 °C for 30 sec, followed by 30 cycles at 94 °C (30 sec), 60 °C (30 sec), 72 °C (30 sec) then finally 72 °C (2 min). […] Combined PCR products were precipitated for 20 min with 10 μL 3M sodium acetate and 300 μL EtOH, pelleted at 14000 min-1 30 min, washed once with 70% EtOH, re-pelleted and resuspended in […]
Promastigotes (1 × 10^7 cells) were combined with PCR products and transfected using the Amaxa Nucleofector II.17 Electroporation was performed using 2 mm cuvettes on the X-100 program, followed by immediate suspension in pre-warmed M199 medium. Successful transfectants were selected with 20 μg mL-1 Puromycin 15 h after transfection, taking 4 days to reach stable growth in culture. mNG::RAD51 nuclear foci studies mNG::RAD51 promastigotes (5 × 10^6 cells mL-1) in 7 mL of M199 medium were treated with 7 μL o f compound (S)-9a or (S)-9b dissolved in DMSO giving a final concentration of 50 μM. Phleomycin was used as a positive control at a final concentration of 25 μg mL-1. At T = 0, 15, 30, 60 min, and 2, 6, 24 h post-treatment a 0.8 mL aliquot was taken for imaging.

SMILES | CC50 at 96 h [µM]
COc1cc2c(cc1OC)[C@@H](Cc1ccc(Br)cc1)N(C)CC2 [(R)-9a] | 86.8 ± 2.9
COc1cc2c(cc1OC)[C@@H](Cc1ccc(OC)c(OCc3ccccc3)c1)N(C)CC2 [(R)-9b] | 57.3 ± 3.3
COc1ccc(COc2ccc(C[C@@H]3c4cc(OC)c(OC)cc4CCN3C)cc2Br)cc1 [(R)-9c] | 13.4 ± 1.3
COc1cc2c(cc1OC)[C@@H](Cc1ccc(OCc3ccccc3)cc1)N(C)CC2 [(R)-9d] | 28.1 ± 0.5

tested on: L. infantum promastigotes; assay: Antipromastigote assay (L. infantum), MTT colorimetric; type: cell-based, Leishmania (L.) infantum; conditions: Leishmania infantum; ± SD; MTT, 48 h; read-out: L. infantum IC50 promastigotes
Description: (§2) Table 1 depicts the antileishmanial (L. infantum) activity evaluation performed against both the amastigote form (evaluated microscopically using an ex vivo intracellular model of mice macrophages) and the promastigote one (using an MTT colorimetric method).[32],[33] The cytotoxicity was evaluated against NCTC cells using an MTT colorimetric method and the selectivity index was determined using the ratio between the CC50 values (NCTC cells) and the IC50 values (amastigotes).[32] […] With respect to the substituents on the C ring, larger, hydrophobic groups conferred greater bioactivity (e.g., 9b–d), whereas small, hydrophilic groups such as a hydroxyl group afford modest to poor bioactivity.
(§3) Leishmania (L.) infantum (MHOM/BR/1972/LD) amastigotes were obtained from golden hamsters (Mesocricetus auratus) spleens following 60-70 days of infection via differential centrifugation. The Stauber method was used to determine the number of parasites.12 […]
Biological activity assays
Antipromastigote Assay (L. infantum)
L. infantum promastigotes (1 × 10^6 cells/well) were added to a 96-well plates. Treatment of the cells with selected compounds (serially diluted 0.14 to 200 μM) was performed in M199 medium supplemented with 0.25% hemin and 10% fetal bovine serum for 48 h at 24 °C. The MTT colorimetric assay was used to determine the activity (IC50) of the compounds. Miltefosine was used as a standard drug and untreated promastigotes were used as a negative control. The half inhibitory concentration (IC50) was determined from a sigmoidal regression of the concentration-response curves generated in GraphPadPrism7. […]

IC50 [µM] | SMILES
15.5 ± 5.8 | COc1cc2c(cc1OC)[C@@H](Cc1ccc(Br)cc1)N(C)CC2 [(R)-9a]
3.3 ± 1.6 | COc1cc2c(cc1OC)[C@@H](Cc1ccc(OC)c(OCc3ccccc3)c1)N(C)CC2 [(R)-9b]
3.5 ± 1.2 | COc1ccc(COc2ccc(C[C@@H]3c4cc(OC)c(OC)cc4CCN3C)cc2Br)cc1 [(R)-9c]
1.1 ± 0.5 | COc1cc2c(cc1OC)[C@@H](Cc1ccc(OCc3ccccc3)cc1)N(C)CC2 [(R)-9d]

tested on: T. cruzi trypomastigotes; assay: Antitrypomastigote assay (T. cruzi), resazurin; type: cell-based, Trypanosoma (T.) cruzi; conditions: Trypanosoma cruzi, 24 h, ± SD, resazurin, read-out: T. cruzi IC50 trypomastigotes
Description: (§4) T. cruzi also assumes several cell morphologies during its lifecycle, which differ between the insect vector and mammalian host. In the latter environment, the parasite transitions between extracellular bloodstream trypomastigotes and intracellular amastigotes; both forms are clinically relevant, particularly during the acute stage of Chagas disease.[34] In this work, antitrypanosomal activity was tested against both the amastigote form (evaluated microscopically using an ex vivo intracellular model using mice macrophages) and the trypomastigote form (using the resazurin in vitro assay).[33],[35] […] In silico predictions of pharmacokinetic profiles were carried out using the SwissADME webtool (see the Supporting Information for details).[36] […]
(§5) […] Cultivation was performed in 2% fetal calf serum supplemented RPMI-1640 medium.
(§6) The trypomastigotes were maintained in a humidified incubator at 37 °C and with 5% CO2. […]
as §1
The half inhibitory concentration (IC50) was determined from a sigmoidal regression of the concentration-response curves generated in GraphPadPrism7. […]
Treatment of the cells with selected compounds (serially diluted 1.2 to 150 μM) was performed in a humidified incubator in RPMI 1640 medium for 24 h at 37 °C and with 5% CO2. Resazurin (0.011% in PBS) was added subsequently to verify parasite viability. Benznidazole was used as a standard drug. The optical density was determined at 570 nm using the FilterMax F5 (Molecular Devices). […]

IC50 [µM] | SMILES
28.3 ± 11.7 | COc1cc2c(cc1OC)[C@@H](Cc1ccc(Br)cc1)N(C)CC2 [(R)-9a]
72.3 ± 3 | COc1cc2c(cc1OC)[C@@H](Cc1ccc(OC)c(OCc3ccccc3)c1)N(C)CC2 [(R)-9b]
< 10 | COc1ccc(COc2ccc(C[C@@H]3c4cc(OC)c(OC)cc4CCN3C)cc2Br)cc1 [(R)-9c]
16.5 ± 6.1 | COc1cc2c(cc1OC)[C@@H](Cc1ccc(OCc3ccccc3)cc1)N(C)CC2 [(R)-9d]

same assay, conditions: ± SD; resazurin, 24 h; read-out: T. cruzi IC50 trypomastigotes

IC50 [µM] | SMILES
8.5 ± 3.1 | COc1ccc(COc2ccc(C[C@@H]3c4cc(OC)c(OC)cc4CCN3C)cc2Br)cc1 [(R)-9c]

tested on: T. cruzi amastigotes; assay: Antiamastigote assay (T. cruzi), ex vivo intracellular model using mice macrophages, microscopy; type: cell-based, Trypanosoma (T.) cruzi; conditions: Trypanosoma cruzi, Peritoneal macrophage, 48 h, ± SD, read-out: T. cruzi IC50 amastigotes
Description: as §4, §5, §6
(§7) Peritoneal macrophages were obtained via washing the peritoneal cavity of BALB/c mice with 10% foetal calf serum supplemented RPMI-1640 medium (pH 7.2). The macrophages were maintained in a humidified incubator at 37 °C and with 5% CO2.
as §1
Peritoneal macrophages (1 × 10^5 cells/well) obtained from the peritoneal cavity of BALB/C mice were added to 16-well chambers (NUNC, Thermo Fischer Scientific). The cells were infected with trypomastigotes (10:1 parasites/macrophage) for 2 h. Then treatment of the infected macrophages with selected compounds (serially diluted 1.2 to 100 μM) was performed in a humidified incubator for 48 h at 37 °C and with 5% CO2. The treated cells were fixed on slides using methanol, stained with Giemsa and observed under a light microscope (EVOS M5000, Thermo, USA) with digital image equipment. The infection index was used in order to determine the half inhibitory concentration (IC50) (no. infected macrophages × no. amastigotes / total no.

IC50 [µM] | SMILES
31.8 ± 4.3 | COc1cc2c(cc1OC)[C@@H](Cc1ccc(Br)cc1)N(C)CC2 [(R)-9a]
> 100 | COc1ccc(COc2ccc(C[C@@H]3c4cc(OC)c(OC)cc4CCN3C)cc2Br)cc1 [(R)-9c]
6.2 ± 5.9 | COc1cc2c(cc1OC)[C@@H](Cc1ccc(OCc3ccccc3)cc1)N(C)CC2 [(R)-9d]

tested on: L. infantum amastigotes; assay: Antiamastigote assay (L. infantum), ex vivo intracellular model of mice macrophages, microscopy; type: cell-based, Leishmania (L.) infantum; conditions: Leishmania infantum, Peritoneal macrophage, 96 h, ± SD, intracellular, peritoneal macrophages, read-out: L. infantum IC50 amastigotes
Description: as §2, §3, §7, §1
Antiamastigote Assay (L. infantum)
Peritoneal macrophages (1 × 10^5/well) were added to a 16-well slide chambers (NUNC) and incubated with 5% CO2 at 37 °C. The cells were subsequently infected with L. infantum amastigotes (10:1 amastigotes/macrophage) for 24 h. Treatment of the cells with selected compounds (serially diluted 1.2 to 150 μM) was performed in a humidified incubator for 96 h at 37 °C and with 5% CO2. Untreated cells were used as a negative control and miltefosine was used as a standard drug. The treated cells were fixed on slides with methanol, stained with Giemsa and observed under a light microscope.13 The infection index was used in order to determine the half inhibitory concentration (IC50) (no. infected macrophages × no. amastigotes / total no. […]

IC50 [µM] | SMILES
23.4 ± 3.4 | COc1cc2c(cc1OC)[C@@H](Cc1ccc(Br)cc1)N(C)CC2 [(R)-9a]
13.1 ± 0.8 | COc1cc2c(cc1OC)[C@@H](Cc1ccc(OC)c(OCc3ccccc3)c1)N(C)CC2 [(R)-9b]
> 150 | COc1ccc(COc2ccc(C[C@@H]3c4cc(OC)c(OC)cc4CCN3C)cc2Br)cc1 [(R)-9c]
< 10 | COc1cc2c(cc1OC)[C@@H](Cc1ccc(OCc3ccccc3)cc1)N(C)CC2 [(R)-9d]

same assay, conditions: ± SD; intracellular, peritoneal macrophages, 96 h; read-out: L. infantum IC50 amastigotes

IC50 [µM] | SMILES
9.4 ± 0.5 | COc1cc2c(cc1OC)[C@@H](Cc1ccc(OCc3ccccc3)cc1)N(C)CC2 [(R)-9d]
